# Assay results published in patent US7935694B2, “Lactam compounds useful as protein kinase inhibitors” (Millennium Pharmaceuticals, Inc., priority 2004, dated 2011).
# Biological target: T1, recombinant murine Aurora A enzyme (Mus musculus, UniProt P97477)
# T1 construct: hexahistidine (His6) (N); made in house; host or cells: insect cells (baculovirus, Bac-to-Bac)
# T1 sequence (P97477 1-395): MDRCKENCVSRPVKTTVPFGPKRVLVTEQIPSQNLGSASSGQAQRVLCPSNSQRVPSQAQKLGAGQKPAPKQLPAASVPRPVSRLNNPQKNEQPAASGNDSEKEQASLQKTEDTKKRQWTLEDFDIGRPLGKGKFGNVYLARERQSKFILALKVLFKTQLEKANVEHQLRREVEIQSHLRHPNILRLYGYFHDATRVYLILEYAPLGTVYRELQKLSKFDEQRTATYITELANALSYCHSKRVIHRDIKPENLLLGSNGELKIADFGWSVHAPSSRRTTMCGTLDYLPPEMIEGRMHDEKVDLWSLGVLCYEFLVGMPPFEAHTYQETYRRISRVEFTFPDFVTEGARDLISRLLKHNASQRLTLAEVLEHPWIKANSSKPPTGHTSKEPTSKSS
# Assay: Aurora A DELFIA Kinase Assay
# Type: biochemical
# Settings: 1 mM ATP, 20 nM enzyme, 10 minutes at room temperature
# Description: Recombinant mouse Aurora A with an amino-terminus hexahistidine tag (His-Aurora A) was expressed using a standard baculovirus vector and insect cell expression system (Bac-to-Bac®, Invitrogen). Soluble, recombinant mouse Aurora A was purified from insect cells using Ni-NTA agarose (Qiagen) as described by the manufacturer and further purified over an S75 size exclusion column (Amersham Pharmacia Biotech). The mouse Aurora A enzymatic reaction totaled 25 μL and contained 25 mM Tris-HCl (pH 8.5), 2.5 mM MgCl2, 0.05% Surfact-AMPS-20, 5 mM Sodium Fluoride, 5 mM DTT, 1 mM ATP, 3 μM peptide substrate (Biotin-β-[…]), and 20 nM recombinant murine Aurora A enzyme. The enzymatic reaction mixture, with and without Aurora inhibitors, was incubated for 10 minutes at room temperature before termination with 100 μL of stop buffer (1% BSA, 0.05% Surfact-AMPS-20, and 100 mM EDTA). A total of 100 μL of the enzyme reaction mixture was transferred to wells of a Neutravidin-coated 96-well plate (Pierce) and incubated at room temperature for 30 minutes. The wells were washed with wash buffer (25 mM Tris, 150 mM sodium chloride, and 0.1% Tween 20) and incubated for 1 hour with 100 μL of antibody reaction mixture containing 1% BSA, 0.05% Surfact-AMPS-20, anti-phospho-PKA rabbit polyclonal antibody (1:2000, New England Biolabs), and europium labeled anti-rabbit IgG (1:2000, Perkin Elmer). The wells were washed and then the bound europium was liberated using 100 μL of Enhancement Solution (Perkin Elmer). Quantification of europium was done using a WallacTM EnVision (Perkin Elmer).
row,IC50,SMILES
1,≤ 500 nM,"COc1ccc(Nc2ncc3c(n2)-c2ccc(Cl)cc2NC(=O)C3)cc1OC [Compound I-2, 9-Chloro-2-(3,4-dimethoxy-phenylamino)-5H,7H-benzo[b]pyrimido[4,5-d]azepin-6-one]"
2,≤ 500 nM,"CN1C(=O)Cc2cnc(Nc3ccc(C(=O)O)cc3)nc2-c2ccc(Cl)cc21 [Compound I-7, 4-(9-Chloro-7-methyl-6-oxo-6,7-dihydro-5H-benzo[b]pyrimido[4,5-d]azepin-2-ylamino)-benzoic acid]"
3,≤ 500 nM,"Cc1ccc2c(c1)NC(=O)Cc1cnc(Nc3ccc(C(=O)O)cc3)nc1-2 [Compound I-9, 4-(9-Methyl-6-oxo-6,7-dihydro-5H-benzo[b]pyrimido[4,5-d]azepin-2-ylamino)-benzoic acid]"
4,≤ 500 nM,"O=C(O)c1ccc(Nc2ncc3c(n2)-c2ccc(Cl)cc2N(c2ccccc2)C(=O)C3)cc1 [Compound I-10, 4-(9-Chloro-6-oxo-7-phenyl-6,7-dihydro-5H-benzo[b]pyrimido[4,5-d]azepin-2-ylamino)-benzoic acid]"
5,≤ 5000 nM,"COc1ccc(Nc2ncc3c(n2)-c2cc(Br)ccc2NC(=O)C3)cc1OC [Compound I-18, 10-Bromo-2-(3,4-dimethoxy-phenylamino)-5H,7H-benzo[b]pyrimido[4,5-d]azepin-6-one]"
6,≤ 500 nM,"COc1ccc(Nc2ncc3c(n2)-c2ccccc2NC(=O)C3)cc1OC [Compound I-27, 2-(3,4-Dimethoxy-phenylamino)-5H,7H-benzo[b]pyrimido[4,5-d]azepin-6-one]"
7,≤ 500 nM,"COc1ccc(Nc2ncc3c(n2)-c2ccc(I)cc2NC(=O)C3)cc1OC [Compound I-30, 2-(3,4-dimethoxy-phenylamino)-9-iodo-5H,7H-benzo[b]pyrimido[4,5-d]azepin-6-one]"
8,≤ 500 nM,"COc1ccc(Nc2ncc3c(n2)-c2ccc(C#CCN4CCCC4)cc2NC(=O)C3)cc1OC [Compound I-32, 2-(3,4-Dimethoxy-phenylamino)-9-(3-pyrrolidin-1-yl-prop-1-ynyl)-5H,7H benzo[b]pyrimido[4,5-d]azepin-6-one]"
9,≤ 500 nM,"C#Cc1ccc2c(c1)NC(=O)Cc1cnc(Nc3ccc(OC)c(OC)c3)nc1-2 [Compound I-33, 2-(3,4-dimethoxy-phenylamino)-9-ethynyl-5H,7H-benzo[b]pyrimido[4,5-d]azepin-6-one]"
10,≤ 500 nM,"CCc1ccc2c(c1)NC(=O)Cc1cnc(Nc3ccc(OC)c(OC)c3)nc1-2 [Compound I-37, 2-(3,4-Dimethoxy-phenylamino)-9-ethyl-5H,7H-benzo[b]pyrimido[4,5-d]azepin-6-one]"
11,≤ 500 nM,"COc1ccc(Nc2ncc3c(n2)-c2ccc(C#CCN)cc2NC(=O)C3)cc1OC [Compound I-38, 9-(3-Amino-prop-1-ynyl)-2-(3,4-dimethoxy-phenylamino)-5H,7H-benzo[b]pyrimido[4,5-d]azepin-6-one]"
12,≤ 500 nM,"COc1ccc(Nc2ncc3c(n2)-c2ccc(C)cc2NC(=O)C3)cc1OC [Compound I-42, 2-(3,4-Dimethoxy-phenylamino)-9-methyl-5H,7H-benzo[b]pyrimido[4,5-d]azepin-6-one]"
13,≤ 500 nM,"O=C1Cc2cnc(Nc3ccc(C#CCN4CCCC4)cc3)nc2-c2ccc(Cl)cc2N1 [Compound I-47, 9-Chloro-2-[4-(3-pyrrolidin-1-yl-prop-1-ynyl)-phenylamino]-5H,7H-benzo[b]-pyrimido[4,5-d]azepin-6-one]"
14,≤ 500 nM,"COc1ccc(Nc2ncc3c(n2)-c2ccc(CCCN4CCCC4)cc2NC(=O)C3)cc1OC [Compound I-49, 2-(3,4-Dimethoxy-phenylamino)-9-(3-pyrrolidin-1-yl-propyl)-5H,7H-benzo[b]-pyrimido[4,5-d]azepin-6-one]"
15,≤ 500 nM,"COc1ccc(Nc2ncc3c(n2)-c2ccc(CCCN)cc2NC(=O)C3)cc1OC [Compound I-50, 9-(3-Amino-propyl)-2-(3,4-dimethoxy-phenylamino)-5H,7H-benzo[b]pyrimido[4,5-d]azepin-6-one]"
16,≤ 500 nM,"COc1ccc(Nc2ncc3c(n2)-c2ccc(C(=O)O)cc2NC(=O)C3)cc1OC [Compound I-53, 2-(3,4-dimethoxy-phenylamino)-6-oxo-6,7-dihydro-5H-benzo[b]pyrimido[4,5-d]azepine-9-carboxylic acid]"
17,≤ 500 nM,"NCCNC(=O)c1cccc(Nc2ncc3c(n2)-c2ccc(Cl)cc2NC(=O)C3)c1 [Compound I-62, N-(2-Amino-ethyl)-3-(9-chloro-6-oxo-6,7-dihydro-5H-benzo[b]pyrimido[4,5-d]azepin-2-ylamino)-benzamide]"
18,≤ 500 nM,"NCCCCNC(=O)c1cccc(Nc2ncc3c(n2)-c2ccc(Cl)cc2NC(=O)C3)c1 [Compound I-64, N-(4-Amino-butyl)-3-(9-chloro-6-oxo-6,7-dihydro-5H-benzo[b]pyrimido[4,5-d]azepin-2-ylamino)-benzamide]"
19,≤ 500 nM,"O=C1Cc2cnc(Nc3ccc(CCCN4CCCC4)cc3)nc2-c2ccc(Cl)cc2N1 [Compound I-66, 9-Chloro-2-[4-(3-pyrrolidin-1-yl-propyl)-phenylamino]-5H,7H-benzo[b]pyrimido[4,5-d]-azepin-6-one]"
20,≤ 500 nM,"NCC#Cc1cccc(Nc2ncc3c(n2)-c2ccc(Cl)cc2NC(=O)C3)c1 [Compound I-67, 2-[3-(3-Amino-prop-1-ynyl)-phenylamino]-9-chloro-5H,7H-benzo[b]pyrimido[4,5-d]azepin-6-one]"
21,≤ 500 nM,"COc1ccc(Nc2ncc3c(n2)-c2ccc(C(N)=O)cc2NC(=O)C3)cc1OC [Compound I-70, 2-(3,4-dimethoxy-phenylamino)-6-oxo-6,7-dihydro-5H-benzo[b]pyrimido[4,5-d]azepine-9-carboxylic acid amide]"
22,≤ 500 nM,"COc1ccc(Nc2ncc3c(n2)-c2ccc(C(=O)NCCN)cc2NC(=O)C3)cc1OC [Compound I-71, 2-(3,4-Dimethoxy-phenylamino)-6-oxo-6,7-dihydro-5H-benzo[b]pyrimido[4,5-d]azepine-9-carboxylic acid (2-amino-ethyl)-amide]"
23,≤ 500 nM,"COc1ccc(Nc2ncc3c(n2)-c2ccc(C(=O)NCCCN)cc2NC(=O)C3)cc1OC [Compound I-72, 2-(3,4-Dimethoxy-phenylamino)-6-oxo-6,7-dihydro-5H-benzo[b]pyrimido[4,5-d]azepine-9-carboxylic acid (3-amino-propyl)-amide]"
24,≤ 500 nM,"COc1ccc(Nc2ncc3c(n2)-c2ccc(C(=O)NCCCCN)cc2NC(=O)C3)cc1OC [Compound I-73, 2-(3,4-Dimethoxy-phenylamino)-6-oxo-6,7-dihydro-5H-benzo[b]pyrimido[4,5-d]azepine-9-carboxylic acid (4-amino-butyl)-amide]"
25,≤ 500 nM,"CCCc1ccc2c(c1)NC(=O)Cc1cnc(Nc3ccc(OC)c(OC)c3)nc1-2 [Compound I-82, 2-(3,4-Dimethoxy-phenylamino)-9-propyl-5H,7H-benzo[b]pyrimido[4,5-d]azepin-6-one]"
26,≤ 500 nM,"NCCc1cccc(Nc2ncc3c(n2)-c2ccc(Cl)cc2NC(=O)C3)c1 [Compound I-86, 2-[3-(2-Amino-ethyl)-phenylamino]-9-chloro-5H,7H-benzo[b]pyrimido[4,5-d]azepin-6-one]"
27,≤ 500 nM,"CNCCCc1ccc2c(c1)NC(=O)Cc1cnc(Nc3ccc(OC)c(OC)c3)nc1-2 [Compound I-87, 2-(3,4-Dimethoxy-phenylamino)-9-(3-methylamino-propyl)-5H,7H-benzo[b]pyrimido[4,5-d]azepin-6-one]"
28,≤ 500 nM,"COc1ccc(Nc2ncc3c(n2)-c2ccc(CCCN(C)C)cc2NC(=O)C3)cc1OC [Compound I-88, 2-(3,4-Dimethoxy-phenylamino)-9-(3-dimethylamino-propyl)-5H,7H-benzo[b]pyrimido[4,5-d]azepin-6-one]"
29,≤ 500 nM,"O=C1Cc2cnc(Nc3cccc(C#CCN4CCCC4)c3)nc2-c2ccc(Cl)cc2N1 [Compound I-89, 9-Chloro-2-[3-(3-pyrrolidin-1-yl-prop-1-ynyl)-phenylamino]-5H,7H-benzo[b]-pyrimido[4,5-d]azepin-6-one]"
30,≤ 500 nM,"COc1ccc(Nc2ncc3c(n2)-c2ccc(C#CCN(C)C)cc2NC(=O)C3)cc1OC [Compound I-91, 2-(3,4-Dimethoxy-phenylamino)-9-(3-dimethylamino-prop-1-ynyl)-5H,7H-benzo[b]pyrimido[4,5-d]azepin-6-one]"
